Consider 2 substances from paper PMC8466300, “Investigating the Central Nervous System Disposition of Actinomycin D: Implementation and Evaluation of Cerebral Microdialysis and Brain Tissue Measurements Supported by UPLC-MS/MS Quantification” (Pharmaceutics, 2021).

The data set in a line: Reverse-phase UPLC retention relative to actinomycin D. The format is physicochemical. The note with it: Peptide BEH C18 300 Å, gradient 40–100% ACN + 0.1% FA, 60 °C. On the procedure:
The injected sample volume was 20 µL.
For chromatography optimization we tested reverse phase columns (C18 and C4) due to actinomycin D´s high lipophilicity. We used reverse phase material with a large pore width of 300 Å because large pore widths usually foster optimal mass transfer kinetics for macromolecules. Chromatographic peak shape and separation performed better on the C18 column. In accordance with the high lipophilicity of actinomycin D, a gradient from 40–100% eluent B was found optimal and yielded peaks with a width at baseline of 6 s (Figure 2).

Take 7-amino actinomycin D: the “shift in reverse-phase retention relative to actinomycin D” value is reported as “large hydrophilic shift in retention time”.
With Actinomycin C the entry was “only a minimal lipophilic shift”.
